The values below come from patent publication US12156860B2, “Disorders implicating PUFA oxidation” (BioJiva LLC, priority 2011, dated 2024).

For series [1] the following is noted: cited from earlier work.
Series [2] in a line: Kinetics of O2 consumption during AMVN-initiated oxidation in chlorobenzene (glass capillary microvolumeter). The format is physicochemical. Here is the method: FIG. 7. Kinetics of O2 consumption accompanied the oxidation of 0.71 M LA (plots 1 and 2) and 0.71 M D2-LA (plot 3) in chlorobenzene initiated by 40 mM AMVN at 37° C. Plot 2-0.23 mM HPMC was added to 0.71 M LA.
The kinetics of oxygen consumption during the oxidation of LA and D2-LA was studied with a glass capillary microvolumeter (FIG. 7). The rate of oxidation, ROX, was measured as a slope of [O2] traces. The rate of initiation, RIN, was determined by the inhibitor method with HPMC (“6-hydroxy-2,2,5,7,8-pentamethylbenzochroman”) as a reference inhibitor. RIN was calculated from the induction period of inhibited oxidation, tIND: RIN=2·[HPMC]/tIND. […] When the process was inhibited by 0.23 mM chain-breaking antioxidant HPMC, the duration of the induction period, tIND, was about 48 min, with the RIN value of around 0.16×10^−6 M/s. […] The latter precludes a direct determination of RIN. […] An estimated kinetic isotope effect (“KIE”), from comparison of ROX for LA and D2-LA, was around 6.1×10^−6/0.18×10^−6≈35. A similar KIE was determined during the oxidation of LA and 11,11-d2-LA in Triton X-100 aqueous micelles (data not shown). For comparative purposes, the theoretical KIE is 6.9 at 25° C. See Carpenter, “Determination of Organic Reaction Mechanisms” (John Wiley & Sons, 1984), p. 89.

Series [3] concerns coq null mutants (Q-less yeast). Particulars: for protection in the yeast model: compared with D4-linolenic acid; for viability of coq null mutants after fatty acid treatment: 200 μM fatty acid, plate dilution / colony assay. On the procedure:
FIG. 3. […] Yeast coq3, coq7 and coq9 null mutants were prepared in the W303 yeast genetic background (WT). Yeast strains were grown in YPD medium (1% Bacto-yeast extract, 2% Bacto-peptone, 2% dextrose) and harvested while in log phase growth (OD600 nm=0.1-1.0). Cells were washed twice with sterile water and resuspended in phosphate buffer (0.10 M sodium phosphate, pH 6.2, 0.2% dextrose) to an OD600 nm=0.2. Samples were removed and 1:5 serial dilutions starting at 0.20 OD/ml were plated on YPD plate medium, to provide a zero time untreated control (shown in top left panel). The designated fatty acids were added to 200 μM final concentration to 20 ml of yeast in phosphate buffer. At 2 h, 4 h, and 16 h samples were removed, 1:5 serial dilutions prepared, and spotted onto YPD plate medium. Pictures were taken after 2 days of growth at 30° C.
FIG. 4. […] The fatty acid sensitive assay was performed as described in FIG. 3, except that 100 μl aliquots were removed at 1, 2, and 4 h and, following dilution, spread onto YPD plates. Pictures were taken after 2 to 2.5 days, and the number of colonies counted. Yeast strains include Wild type (circles), atp2 (triangles), or coq3 (squares); Fatty acid treatments include oleic C18:1 (solid line), linolenic, C18:3, n-3 (dashed line) or 11,11,14,14-D4-linolenic, C18:3, n-3, (dotted line).
Q-less yeast (coq mutants) provide an ideal system to assess in vivo autoxidation of fatty acids. Coenzyme Q (ubiquinone or Q) serves as a small lipophilic antioxidant as well as an electron shuttle in the respiratory chain of the mitochondrial inner membrane. Ten S. cerevisiae genes (COQ1-COQ10) are required for coenzyme Q biosynthesis and function, and the deletion of any results in respiratory deficiency (Tran U C, Clarke C F. Mitochondrion 2007; 7S, 562).
A plate dilution assay can be used to assess PUFA sensitivity. This assay can be performed by spotting serial five-fold dilutions of aliquots onto YPD plate media (FIG. 3). The sensitivity of the different strains can be observed by visual inspection of the density of cells in each spot.

The test system of series [4] is alcoholic liver disease rats. Put plainly: Alcoholic liver disease and cirrhosis induced by 5% ethanol diet. The format is in vivo, Rattus norvegicus, Wistar. Particulars: 5% ethanol diet rats, daily over three months. On the procedure:
(§1) Fifty male heterozygous rats, 45-days-old, from the Rattus norvegicus species and Wistar lineage are kept in polypropylene cages, in groups of five animals, under a 12 h-clear/dark cycle and under controlled temperature conditions. The induction of alcoholic liver disease and cirrhosis is carried out through a diet containing 5% ethanol for 6 weeks. […] During the study period, the animals are weighed on a weekly basis and the drugs dose is readjusted as necessary. On the first day of the study, besides determining the animals' weight, their blood is collected through retro-orbital plexus puncture for biochemical analysis: alanine-aminotransferase (ALT) and aspartate-aminotransferase (AST) (colorimetric test, using the Labtest kit). One day after concluding the induction period and compound administration (90 days), the animals are sacrificed by decapitation. Once more, each animal's blood is collected for biochemical analysis. Then, laparotomy with total hepatectomy and liver preparation are carried out for lipoperoxidation (LPO) and histological analysis. Liver tissue samples are analyzed using the thiobarbituric-acid reactant substance (TBARS) measurement according to known methods (See Lowry et al. Protein measurement with the folin phenol reagent. J Biol Chem. 1951; 193:265-75) and the results are expressed in nmol of malondialdehyde/mg of protein. Slides with liver fragments are also dyed with hematoxilin-eosine and picrosirius, in order to evaluate the fibrosis level, and with Perls to evaluate the presence of iron stores, having been examined by an only pathologist blinded to the animals' data.

A further series concerns WT (W303) yeast. To be noted: 200 μM, 4 h incubation.
A further series deals with rat hearts. Put plainly: Langendorf isolated heart perfusion model, echo- and electrocardiography. The format is in vivo. To be noted: rats, 8 weeks supplementation. On the procedure:
Test compounds disclosed herein can also be assessed using the Langendorf isolated heart perfusion model. […] Following the treatment period, rat hearts are analyzed by echocardiography for measurement of muscle thickness of the left ventricle, left atrium, right ventricle, and right atrium and electrocardiography for measuring electrical activity. After live evaluation, rats are humanely sacrificed and their hearts isolated and connected to the Langendorf isolated perfusion system (See Jennings et al., Am. Surg. 2004; 70(9), 797-800). Left ventricular pressure is then measured with a left ventricular balloon. Coronary flow is also measured. Cardiac function is further assessed by determining the effect of administration of test compounds on the rate of contraction and relaxation of the heart. To determine whether any observed effects on cardiac function are due to the effect of the test compound on mitochondrial function, mitochondrial activity pre-ischemia and post-ischemia is assessed for each of the treatment groups.

Series [5] relates to stroke-prone spontaneously hypertensive (SHRSP) rat. The experiment in a line: SHRSP rat model of hypertension. The series is classed as in vivo. Particulars: SHRSP rats, 8 weeks. The text has this:
The stroke-prone spontaneously hypertensive (SHRSP) rat model of hypertension, which has been previously described (McIntyre et al., 1997 Hypertension 30:1517; Alexander et al., 1999 Cardiovasc. Res. 43:798; Fennell et al., 2002 Gene Ther. 9:110), can be used for the assessment of a compound's ability to mitigate hypertension.

In another series the test system is NASH (MCD diet) rats. Put plainly: NASH induced by methionine and choline deficient diet. The format is in vivo, Rattus norvegicus, Wistar. Particulars: daily over three months. Here is the method:
as §1, with “NASH” for “alcoholic liver disease and cirrhosis”, “deficient in methionine and choline (MCD) according to known procedures (See Rogers A E, Newberne P M. Alcoholic and nutritional fatty liver and cirrhosis. Am J Pathol. 1973; 73:817-20).” for “containing 5% ethanol for 6 weeks.”, “days),” for “days), the”, “data. The minimum histological criterion for NASH diagnosis is the presence of hepatocellular ballooning-related steatosis, involving zone 3 and lobular inflammatory infiltrate. Mallory corpuscles and sinusoidal fibrosis, involving zone 3 might be present or not. The graduation of both necroinflammatory and fibrosis activity is carried out according to known classifications (See Brunt E M, Janney C G, Di Bisceglie A M, Neuschwander-Tetri B A, Bacon B R. Nonalcoholic steatohepatitis: a proposal for grading and staging the histological lesions. Am J Gastroenterol. 1999; 94:2467-74).” for “data.”

The test system of series [6] is coq null mutants (Q-less yeast). Particulars: cited from earlier work; for sensitivity of Q-less yeast to fatty acid treatment: compared with wild-type parental strain.
The subject of series [7] is wild-type (W303-1B) yeast cells. Particulars: four hour treatment; cited from earlier work.
In another series the test system is Q-less coq3 yeast. Put plainly: Yeast incubated with different ratios of H- and D-PUFA, plate dilution. The format is cell-based, S. cerevisiae. To be noted: after 3 hours of treatment, data not shown. On the procedure: FIG. 9. […] Wild-type, yeast Q-less coq3, or respiratory deficient cor1 null mutants were incubated in the presence of 200 μM of LA and D2-LA at different ratios of PUFAs. Serial dilutions (1:5) starting at 0.2 OD/ml were spotted on YPD solid plate medium. A zero-time untreated control is shown on the top left. Growth at 30° C.
FIG. 10. […] Serial dilutions (1:5) starting at 0.2 OD/ml were spotted on YPD solid plate medium. Growth at 30° C.
Wild-type, yeast Q-less coq3, or respiratory deficient cor1 null mutants were incubated in the presence of 200 μM of LA and D2-LA at different ratios of PUFAs, as indicated in FIG. 9. Serial dilutions (1:5) starting at 0.2 OD/ml were spotted on YPD solid plate medium. […] Growth was at 30° C.
Serial dilutions (1:5) starting at 0.2 OD/ml were spotted on YPD solid plate medium. Growth was at 30° C.

Description for WT (W303) yeast: Uptake of exogenously supplied fatty acids by yeast. WT (W303) yeast were harvested at log phase and incubated in the presence of 200 μM of the designated fatty acid for either 0 or 4 h.
Wild-type yeast were harvested during log phase growth and incubated in the presence of exogenously added fatty acid (for 0 or 4 h) in the presence of phosphate buffer plus 0.20% dextrose, as described for the fatty acid sensitivity assay. Cells were harvested, washed twice with 10 ml sterile water, and the yeast cell pellets were then processed by alkaline methanolysis as described above. The fatty acids are detected as methylesters (FAMEs) following GC-MS with C17:0 added as an internal standard (FIG. 6).

In the case of `[2H]O[2H]` [heavy water, D2O], the “amount a 70 kg person might drink without serious consequences” value in [1] was 4.8 L.

In the case of `CCCCC/C=C\C/C=C\CCCCCCCC(=O)O` [LA, cis,cis-9,12-Octadecadienoic acid, reference compound], in series [2] (0.71 M in chlorobenzene, 40 mM AMVN, 37° C.), the “rate of oxidation, ROX” value was found to be 6.1e-06 M/s. Further, the “length of the kinetic chain, ROX/RIN” value in series [2] (for D2-LA assuming RIN comparable to that of LA) was determined as 38±3. This compound showed an oxidizability in [2] (n=5) of 0.0215±0.008 M^−0.5 s^−0.5.

For `[2H]C([2H])(/C=C\C/C=C\CC)C/C=C\CCCCCCC(=O)O` [11, 11-D2-linolenic acid, 11,11-Dideutero-cis,cis,cis-octadeca-8,12,15-trienoic acid], in series [3], the “protection in the yeast model” value is listed as “comparable protection”.

As for `[2H]C([2H])(/C=C\CC)/C=C\C([2H])([2H])/C=C\CCCCCCCC(=O)O` [D4-linolenic acid, 11,11,14,14-Tetradeutero-cis,cis,cis-9,12,15-Octadecatrienoic acid], in series [4], the “amount of MDA in liver samples (TBARS)” value is “reduce the amount of MDA found in liver samples” and the “histological signs of fatty liver disease” value was “reverse the histological signs of fatty liver disease”. Besides, the “viability of coq null mutants after fatty acid treatment” value in [3] is listed as “resistant to PUFA-mediated cell killing”. In addition, in series [3] (quantitative colony counting (FIG. 4)), the “viability of cells compared with oleic acid treatment” value is “similar”. Besides, the “incorporation of fatty acid by yeast” value in the series with WT (W303) yeast is listed as “avidly incorporate”. The “symptoms and markers associated with cardiac disorders” value in the series with rat hearts is “reduce symptoms and markers associated with cardiac disorders”. Also, in series [5], the systolic blood pressure entry is listed as “reduction in systolic blood pressure”. In the series with NASH (MCD diet) rats, the “amount of MDA in liver samples (TBARS)” value is reported as “reduce the amount of MDA found in liver samples” and the “histological signs of NASH” value is “reverse the histological signs of NASH”.

In the case of `CCCCC/C=C\C/C=C\C/C=C\C/C=C\CCCC(=O)O` [arachidonic acid], in series [6], the “sensitivity of Q-less yeast to fatty acid treatment” value is “hypersensitive”.

With `CC/C=C\C/C=C\C/C=C\CCCCCCCC(=O)O` [linolenic acid, cis,cis,cis-9,12,15-Octadecatrienoic acid, reference compound], the “viability of coq null mutants after fatty acid treatment” value in series [3] was “dramatic loss of viability”. In the series on WT (W303) yeast, the “incorporation of fatty acid by yeast” value is given as “avidly incorporate”. The “viable Q-less (coq2, coq3, and coq5) yeast mutants” value in series [6] (following a four hour treatment) was “Less than 1%”. Besides, the “wild-type cells remaining viable” value in series [7] was 70%.

Turning to `CCCCCCCC/C=C\CCCCCCCC(=O)O` [oleic acid], the “sensitivity of Q-less yeast to fatty acid treatment” value in series [6] is on record as “behave the same as the wild-type parental strain”.

Regarding `[2H]C(/C=C\CCCCC)/C=C\CCCCCCCC(=O)O` (stereo not shown) [11,11-D,H-LA, [11^−2 H]-linoleic acid], in the series with Q-less coq3 yeast, the cell viability entry was “no detectable loss in cell viability”.

For the compound `[2H]C([2H])(/C=C\CC)/C=C\CC/C=C\CCCCCCC(=O)O` [14, 14-D2-linolenic acid, 14,14-Dideutero-cis,cis,cis-octadeca-8,12,15-trienoic acid], in [3], the “protection in the yeast model” value was “comparable protection”.
